Measurements: US20080095822A1, “Active Substance Delivery System Comprising A Hydrogel Atrix And Microcarriers” (UNIVERSITE DE LIEGE, priority 2004, published 2008)

Experiment: release of LNG from PHEMA hydrogel matrix into purified water (HPLC-UV)
Assay type: physicochemical
Conditions: LNG directly in matrix, after 10 days, purified water 37° C.

release rate after stabilisation: around 10 μg/day
SMILES: C#C[C@]1(O)CC[C@H]2[C@@H]3CCC4=CC(=O)CC[C@@H]4[C@H]3CC[C@@]21CC [LNG, levonorgestrel]
